Experimental data reported in US20240101963A1, “SC-BETA CELLS AND COMPOSITIONS AND METHODS FOR GENERATING THE SAME” (President and Fellows of Harvard College, priority 2013, published 2024).

Tests used:
Type in all cases: cell-based, human
SC-β cells [1] = assay: Insulin secretion of plated SC-β cells treated with anti-diabetic drugs in 2 and 20 mM glucose; conditions: SC-β cells treated with drug; trend
Experimental: FIG. 16A is a schematic illustration of the utility of SC-β cells for treating diabetes or screening drugs to improve function or replication. FIG. 16B is a table listing diabetic drugs investigated and their general therapeutic category. FIG. 16C is a graph showing ELISA measurements of secreted human insulin from plated SC-β cells treated with the indicated drugs in 2 and 20 mM glucose. Indicated p values compare the insulin value in 20 mM glucose between the drug and the control. FIG. 16D is an immunofluorescence image of dispersed and plated SC-β cells stained with DAPI (blue), C-peptide (green), and Ki67 (red) without treatment. FIG. 16E is an immunofluorescence image of dispersed and plated SC-β cells stained with DAPI (blue), C-peptide (green), and Ki67 (red) treated with prolactin for 48 hours. […] FIG. 16G is a graph illustrating fasting blood glucose measurements of Akita mice transplanted with SC-β cells (n=6) or PH cells (n=6). *p<0.05 comparing the two cell groups on the same day. FIG. 16H is a graph illustrating blood glucose measurements from progressively diabetic Akita mice transplanted with SC-β cells or PH cells. Measurements were taken before (white bars) and 20 min after (black bars) a glucose injection of mice transplanted 2 weeks prior. Glucose measurements were saturated at 550 mg/dL. *p<0.05 comparing the two cell groups at the same time post glucose injection. FIG. 16I is a graph showing ELISA measurements of human insulin from the serum of Akita mice 20 min after a glucose injection. Mice were challenged with glucose 2 weeks post transplantation. *p<0.05 comparing the two cell groups. Scale bar=50 μm.
The inventors first tested whether SC-β cells could respond to existing anti-diabetic drugs from several different classes (FIG. 16B). LY2608204 is glucokinase activator in clinical trials while liraglutide, tolbutamide, and nateglinide are examples of GLP-1 agonists and secretagogues (sulfonylureas and meglitinides), respectively, that have been used clinically (Matschinsky, 2009; Modi, 2007; Vetere et al., 2014).

hPSC = assay: Modified differentiation protocol Steps 3-6: cell survival and marker expression; conditions: for cell survival: Steps 3-5
Text: (Watanabe, K. et al., Nature Biotechnology 25, 681-686 (2007)).
(Watanabe et al.) Examples of Rock inhibitors include, but are not limited to, Y-27632, Fasudil/HA1077, and H-1152.
In addition to treating the cells with a Rocki inhibitor, the cells in Steps 3-4 can be treated with ActivinA alone or in combination with Nicotinamide.
Staurosporine is known to be an activator of neuronal, glial, and stem cell-like neurosphere differentiation and is also thought to induce apoptosis. (Schumacher, et al., Mol. Cell. Neurosci. 2003; 23(4): 669-680).

SC-β cells [2] = assay: GSIS of SC-β cells after adding additional factors to CMRL media at last differentiation step (Stage 6); conditions: factor added to CMRL media containing Alk5 inhibitor and T3; versus CMRL only, CMRL+Alk5i+T3 or S3+Alk5i+T3
Text: To induce the in vitro maturation of at least some of the Pdx1-positive, NKX6-1-positive, insulin-positive endocrine cells into SC-β cells, the Pdx1-positive, NKX6-1-positive, insulin-positive endocrine cells are maintained in a suitable culture medium for a sufficient period of time. […] Adding additional factors to the CMRL media at the last step of differentiation (Stage 6) (FIG. 14A), however, was also found to generate a better glucose stimulated insulin secretion (GSIS) response by SC-β cells as measured by either stimulation index between high and low glucose challenges or by the amount of insulin released. Such additional factors may include, but are not limited to, Sant1, XXI, and SSP. The stimulation index, as calculated by the ratio of insulin secreted in high glucose (15 mM) to low glucose (2.5 mM), was greater for the SC-β cells maintained in a CMRL media containing Alk5 inhibitor, T3 hormone and either Sant1, XXI or SSP than those SC-β cells maintained in only CMRL media, CMRL media containing Alk5 inhibitor and T3 hormone, or S3 media containing Alk5 inhibitor and T3 hormone (FIG. 14B). Furthermore, the amount of insulin secreted was greater for the SC-β cells maintained in a CMRL media containing Alk5 inhibitor, T3 hormone and either Sant1, XXI or SSP than those SC-β cells maintained in only CMRL media, CMRL media containing Alk5 inhibitor and T3 hormone, or S3 media containing Alk5 inhibitor and T3 hormone (FIG. 14C).
Alternatively, Days 21-35: CMRLS+10 μM Alk5i II+1 μM T3+Sant1.
Alternatively, Days 21-35: CMRLS+10 μM Alk5i II+1 μM T3+XXI.
Alternatively, Days 21-35: CMRLS+10 μM Alk5i II+1 μM T3+SSP.

SC-β cells [3] = assay: β cell replication: C-peptide/Ki67 staining of SC-β cells; conditions: SC-β cells cultured with prolactin (48 hours); untreated 0.20±0.08%
Text: Next the inventors tested whether SC-β cells could model β cell replication. Increasing a patient's β cell mass may improve glycemic control by producing more insulin in total without needing to increase the amount of insulin produced per β cell. To date, few if any drugs that have promoted β cell replication in rodent or cell line models have been translated to human β cells. […] The inventors tested whether treatment with prolactin could increase β cell replication in a SC-β cell population. After culturing SC-β cells with prolactin, cells were stained and fixed for C-peptide and the proliferation marker Ki67 (FIGS. 16D and 16E). Like primary human β cells, the baseline number of Ki67+ proliferating SC-β cells was very low (0.20±0.08% Ki67+/C-peptide+) (FIG. 16F).
Cells were dispersed and plated onto 96 well plates. After one day of culture, cells were washed in PBS and fixed in 4% PFA for 20 min at RT. Following 3 washes with PBS, cells were blocked for 1 hour at RT in PBS+0.1% Triton X-100+5% donkey serum. […] The percentage of target cell-types was quantified using the Array Scan Cellomics high-content screening system. Here 30 images were acquired per well and quantified. Cells labeled by antibody staining and total cell number (based on DAPI nuclei staining) were quantified to obtain percentages of target cell types.

## O=C(Nc1ncc(SCCN2CCCC2)s1)[C@]1(c2ccc(S(=O)(=O)C3CC3)cc2)C[C@H]1C1CCCCC1 [LY2608204]
SC-β cells [1]
  insulin secretion in vitro following a glucose challenge: increasing insulin secretion

## NC(=O)c1cccnc1 [Nicotinamide]
hPSC
  cell survival: improve cell survival

## Cc1nn(-c2ccccc2)c(C)c1/C=N/N1CCN(Cc2ccccc2)CC1 [Sant1]
SC-β cells [2]
  amount of insulin secreted: greater
  stimulation index, ratio of insulin secreted in high glucose (15 mM) to low glucose (2.5 mM): greater

## C[C@H](NC(=O)Cc1cc(F)cc(F)c1)C(=O)N[C@H]1N=C(c2ccccc2)c2ccccc2N(C)C1=O [XXI]
SC-β cells [2]
  amount of insulin secreted: greater
  stimulation index, ratio of insulin secreted in high glucose (15 mM) to low glucose (2.5 mM): greater
hPSC; XXI added to medium with Alk5i and T3 at Steps 5 and 6
  NeuroD1+ population: increase

## CC(C)[C@H]1CC[C@H](C(=O)N[C@H](Cc2ccccc2)C(=O)O)CC1 [nateglinide]
SC-β cells [1]
  insulin secretion in vitro following a glucose challenge: increasing insulin secretion

## CN[C@@H]1C[C@H]2O[C@@](C)([C@@H]1OC)n1c3ccccc3c3c4c(c5c6ccccc6n2c5c31)C(=O)NC4 [staurosporine]
SC-β cells [2]
  amount of insulin secreted: greater
  stimulation index, ratio of insulin secreted in high glucose (15 mM) to low glucose (2.5 mM): greater
hPSC; Steps 5-6
  percentage of ChromograninA: increasing
  percentage of NKX6-1.C-peptide+ cells: increasing

## CCCCNC(=O)NS(=O)(=O)c1ccc(C)cc1 [tolbutamide]
SC-β cells [1]
  insulin secretion in vitro following a glucose challenge: increasing insulin secretion

B1: Activin A: growth factor from the TGF-β superfamily (protein, UniProt P08476 311-426, looked up)
Inhibin beta A chain: GLECDGKVNICCKKQFFVSFKDIGWNDWIIAPSGYHANYCEGECPSHIAGTSGSSLSFHSTVINHYRMRGHSPFANLKSCCVPTKLRPMSMLYYDDGQNIIKKDIQNMIVEECGCS
modifications: Inhibin beta A chain
notes: growth factor from the TGF-β superfamily
hPSC
  cell survival: improve cell survival

B2: prolactin: hormone tested for increasing β cell replication (protein, UniProt P01236 29-227, looked up)
Prolactin: LPICPGGAARCQVTLRDLFDRAVVLSHYIHNLSSEMFSEFDKRYTHGRGFITKAINSCHTSSLATPEDKEQAQQMNQKDFLSLIVSILRSWNEPLYHLVTEVRGMQEAPEAILSKAVEIEEQTKRLLEGMELIVSQVHPETKENEIYPVWSGLPSLQMADEESRLSAYYNLLHCLRRDSHKIDNYLKLLKCRIIHNNNC
SC-β cells [3]
  Ki67+/C-peptide+ cells after prolactin treatment: 0.39±0.08%
